Measurements from US20190330224A1, “ACC INHIBITORS AND USES THEREOF” (Gilead Apollo, LLC, priority 2015, published 2019).
pIC50: −log10 of the molar value. Values after ≈ are worked out from the molar mass of the structure shown. Like-named read-outs stand apart in the source and are kept apart here.

Columns and labels:
[1] = test system: ACC1; settings: ACC1 isolated from rat, mouse, monkey and human; cited from earlier work
[2] = test system: ACC2; settings: ACC2 isolated from rat, mouse, monkey and human; cited from earlier work
[3] = test system: C. albicans ATCC 90028; test: Anti-Fungal Activity Assay (broth microtiter MIC), C. albicans; type: cell-based, Candida albicans; settings: Candida albicans, ATCC90028, 48 h, 3 replicates; MIC recorded at 48 h; read-out: MIC C. albicans ATCC 90028
Procedure, shortened: (§1)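 MIC taken as visual growth inhibition versus the growth control, mostly at 48 h (soraphen also at 24 h). Following CLSI M27-A3, colonies grown overnight at 35° C on Sabouraud dextrose agar were suspended in RPMI 1640+MOPS; test agents came from 1 mg/mL DMSO stocks.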

[4] = test system: Candida tropicalis; test: In vitro antifungal assay (broth microdilution, Micromyx), C. tropicalis; type: cell-based; settings: ATCC90874, strain 0636 ATCC 90874, 35° C., approximately 24-48 hr
Protocol: (§2) Compounds of the present invention were also assayed in an in vitro antifungal assay against Candida glabrata, Candida tropicalis, and Aspergillus fumigatus, performed by Micromyx, a representative procedure of which follows. The test organisms were reference strains acquired from the American Type Culture Collection (ATCC). Upon receipt, the isolates were streaked onto Sabouraud Dextrose Agar (SDA). Colonies were harvested from these plates and a cell suspension was prepared in Sabouraud Dextrose Broth (Becton Dickinson, Sparks, Md.) containing cryoprotectant. Aliquots were then frozen at −80° C. Prior to the assay, the frozen seeds of all yeast isolates to be tested in that session were thawed and streaked for isolation onto SDA and incubated overnight at 35° C. All fungal isolates were previously streaked on SDA and incubated at 35° C. until spore formation occurred, followed by harvesting of the spores in sterile 0.85% saline and enumeration. The spore preps were stored at 4° C. Yeast and fungal isolates were tested in RPMI medium (Catalog No. SH30011.04; Lot No. AYB60287A; HyClone Labs, Logan, Utah) buffered with 0.165 M MOPS (Catalog No. 475898; Lot No. D00165859; CalBiochem, La Jolla, Calif.). The pH of the medium was adjusted to 7.0 with 1 N NaOH, sterile filtered using a 0.2 μm PES filter, and stored at 4° C. until used. All of the above media was prepared and stored according to guidelines from the Clinical and Laboratory Standards Institute (CLSI; 2-4). The broth microdilution assay method essentially followed the procedure described by CLSI (2-4) and employed automated liquid handlers to conduct serial dilutions and liquid transfers. Automated liquid handlers included the Multidrop 384 (Labsystems, Helsinki, Finland) and Biomek 2000 (Beckman Coulter, Fullerton Calif. The wells in columns 2-12 in standard 96-well microdilution plates (Costar 3795) were filled with 150 μl of the correct diluent. These would become the ‘mother plates’ from which ‘daughter’ or test plates would be prepared. The drugs (300 μL at 40× the desired top concentration in the test plates) were dispensed into the appropriate well in Column 1 of the mother plates. The Biomek 2000 was used to make serial two-fold dilutions through Column 11 in the “mother plate”. The wells of Column 12 contained no drug and were the organism growth control wells. The daughter plates were loaded with 185 μL per well of the appropriate test media using the Multidrop 384. The daughter plates were prepared using the Biomek FX which transferred 5 μL of drug solution from each well of a mother plate to the corresponding well of the correct daughter plate in a single step. A standardized inoculum of each organism was prepared per CLSI methods (2-4). For yeast isolates, colonies were picked from the primary plate and a suspension was prepared to equal a 0.5 McFarland turbidity standard. Suspensions were then diluted 1:100 in RPMI 1640 medium, resulting in a final inoculum concentration of 0.5-2.5×10^3 CFU/mL per test well. […] Standardized inoculum suspensions were transferred to compartments of sterile reservoirs divided by length (Beckman Coulter), and the Biomek 2000 was used to inoculate all plates. Daughter plates were placed on the Biomek 2000 in reverse orientation so that plates were inoculated from low to high drug concentration. The Biomek 2000 delivered 10 μL of standardized inoculum into each well of the appropriate daughter plate for an additional 1:20 dilution. Thus, the wells of the daughter plates ultimately contained 185 μL of the appropriate media, 5 μL of drug solution, and 10 μL of inoculum. The final concentration of DMSO (if used as a solvent) in the test well was 2.5%. Plates were stacked 3 high, covered with a lid on the top plate, placed into plastic bags, and incubated at 35° C. for approximately 24-48 hr for all yeast isolates, and 48 hr for all fungal isolates. Plates were viewed from the bottom using a plate viewer. […]

[5] = test system: Candida glabrata; test: In vitro antifungal assay (broth microdilution, Micromyx), C. glabrata; type: cell-based; settings: Nakaseomyces glabratus, ATCC90030, strain 0635 ATCC 90030, 35° C., approximately 24-48 hr
Protocol: as §2

[6] = biological target: Human ACC2 (Homo sapiens, UniProt O00763); test: In vitro ACC2 inhibition assay (ADP-Glo), human ACC2; type: biochemical; settings: 5 nM ACC2, 20 μM ATP, 20 μM acetyl-CoA
[7] = test system: C. parapsilosis ATCC 22019; test: Anti-Fungal Activity Assay (broth microtiter MIC), C. parapsilosis; type: cell-based, Candida parapsilosis; settings: Lodderomyces parapsilosis, ATCC22019, 48 h, 3 replicates; MIC recorded at 48 h; read-out: MIC C. parapsilosis ATCC 22019
Procedure, shortened: as §1

[8] = test system: Aspergillus fumigatus; test: In vitro antifungal assay (broth microdilution, Micromyx), A. fumigatus; type: cell-based; settings: 48 hr
Protocol: as §2

[9] = test system: C. krusei ATCC 6258; test: Anti-Fungal Activity Assay (broth microtiter MIC), C. krusei; type: cell-based, Candida krusei; settings: Pichia kudriavzevii, ATCC6258, 48 h, 3 replicates; MIC recorded at 48 h; read-out: MIC C. krusei ATCC 6258
Procedure, shortened: as §1

[10] = biological target: Fungal ACC2 (UniProt Q00955); settings: read-out: Fungal ACC2 (IC50, in vitro ACC2 inhibition)
[11] = strain 5280 ATCC MYA-3626, 35° C., read-out: MIC, A. fumigatus 5280 ATCC MYA-3626
[12] = strain 6781 ATCC MYA-4609, 35° C., read-out: MIC, A. fumigatus 6781 ATCC MYA-4609

Sequence of Human ACC2 (O00763 whole entry): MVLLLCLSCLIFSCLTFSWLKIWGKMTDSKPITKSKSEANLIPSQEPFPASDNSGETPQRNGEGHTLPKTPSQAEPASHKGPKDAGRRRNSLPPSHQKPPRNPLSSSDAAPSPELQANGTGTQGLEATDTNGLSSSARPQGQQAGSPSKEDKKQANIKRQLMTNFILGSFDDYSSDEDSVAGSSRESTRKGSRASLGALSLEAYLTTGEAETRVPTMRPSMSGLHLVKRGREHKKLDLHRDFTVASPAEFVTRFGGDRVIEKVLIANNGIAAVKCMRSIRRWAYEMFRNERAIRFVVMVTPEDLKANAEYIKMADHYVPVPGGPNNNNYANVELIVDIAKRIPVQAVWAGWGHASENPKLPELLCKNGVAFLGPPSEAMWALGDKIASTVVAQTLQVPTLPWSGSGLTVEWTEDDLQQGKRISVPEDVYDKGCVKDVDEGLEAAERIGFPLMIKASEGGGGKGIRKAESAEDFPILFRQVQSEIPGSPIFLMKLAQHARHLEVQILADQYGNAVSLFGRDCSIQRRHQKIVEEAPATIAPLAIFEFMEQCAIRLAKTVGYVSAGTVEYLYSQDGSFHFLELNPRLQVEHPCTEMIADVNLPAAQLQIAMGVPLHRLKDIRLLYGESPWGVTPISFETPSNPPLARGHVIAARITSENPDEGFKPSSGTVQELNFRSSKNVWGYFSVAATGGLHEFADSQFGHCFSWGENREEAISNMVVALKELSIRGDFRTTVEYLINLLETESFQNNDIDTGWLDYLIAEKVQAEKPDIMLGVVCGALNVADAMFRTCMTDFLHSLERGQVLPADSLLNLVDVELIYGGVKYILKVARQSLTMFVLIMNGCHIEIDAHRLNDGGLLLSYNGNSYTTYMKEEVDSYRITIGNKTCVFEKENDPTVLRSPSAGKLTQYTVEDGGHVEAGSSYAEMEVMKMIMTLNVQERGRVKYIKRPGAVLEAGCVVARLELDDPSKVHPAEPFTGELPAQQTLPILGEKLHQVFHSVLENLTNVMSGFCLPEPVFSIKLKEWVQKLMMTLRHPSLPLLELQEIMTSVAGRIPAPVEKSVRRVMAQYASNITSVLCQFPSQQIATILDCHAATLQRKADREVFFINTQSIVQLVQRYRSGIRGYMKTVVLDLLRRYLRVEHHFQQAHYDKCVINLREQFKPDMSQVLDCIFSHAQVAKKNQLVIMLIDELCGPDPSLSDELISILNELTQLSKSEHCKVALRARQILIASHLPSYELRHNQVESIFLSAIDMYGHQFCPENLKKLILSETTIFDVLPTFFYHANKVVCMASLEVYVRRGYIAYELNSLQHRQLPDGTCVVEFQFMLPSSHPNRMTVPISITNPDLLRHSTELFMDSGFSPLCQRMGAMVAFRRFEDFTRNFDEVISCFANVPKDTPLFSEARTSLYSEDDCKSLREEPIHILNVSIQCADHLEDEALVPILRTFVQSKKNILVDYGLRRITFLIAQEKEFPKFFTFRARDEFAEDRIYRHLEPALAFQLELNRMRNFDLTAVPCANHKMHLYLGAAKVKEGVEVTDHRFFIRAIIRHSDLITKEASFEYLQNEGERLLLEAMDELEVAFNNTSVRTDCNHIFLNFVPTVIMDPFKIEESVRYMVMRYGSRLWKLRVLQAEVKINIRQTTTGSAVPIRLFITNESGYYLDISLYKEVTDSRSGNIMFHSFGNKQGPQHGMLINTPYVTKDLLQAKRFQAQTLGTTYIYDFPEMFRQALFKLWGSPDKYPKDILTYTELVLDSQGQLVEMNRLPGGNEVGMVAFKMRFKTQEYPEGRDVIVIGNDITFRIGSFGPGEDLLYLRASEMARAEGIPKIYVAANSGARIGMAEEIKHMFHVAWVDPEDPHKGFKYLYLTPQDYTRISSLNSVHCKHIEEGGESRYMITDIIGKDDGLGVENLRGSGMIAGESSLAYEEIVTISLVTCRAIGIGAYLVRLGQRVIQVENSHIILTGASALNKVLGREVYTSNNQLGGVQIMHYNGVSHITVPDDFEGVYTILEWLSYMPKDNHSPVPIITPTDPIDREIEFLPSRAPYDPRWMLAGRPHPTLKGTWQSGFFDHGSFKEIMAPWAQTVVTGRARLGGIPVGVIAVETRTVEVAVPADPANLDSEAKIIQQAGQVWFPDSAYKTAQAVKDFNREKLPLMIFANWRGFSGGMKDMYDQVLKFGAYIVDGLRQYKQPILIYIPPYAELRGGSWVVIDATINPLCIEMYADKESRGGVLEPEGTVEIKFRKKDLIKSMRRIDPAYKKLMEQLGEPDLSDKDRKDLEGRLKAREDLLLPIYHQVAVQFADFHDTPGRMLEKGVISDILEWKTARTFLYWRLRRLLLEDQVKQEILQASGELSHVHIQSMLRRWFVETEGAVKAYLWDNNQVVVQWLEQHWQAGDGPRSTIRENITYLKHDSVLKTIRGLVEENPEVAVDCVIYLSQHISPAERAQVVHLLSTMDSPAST
Sequence of Fungal ACC2 (Q00955 whole entry): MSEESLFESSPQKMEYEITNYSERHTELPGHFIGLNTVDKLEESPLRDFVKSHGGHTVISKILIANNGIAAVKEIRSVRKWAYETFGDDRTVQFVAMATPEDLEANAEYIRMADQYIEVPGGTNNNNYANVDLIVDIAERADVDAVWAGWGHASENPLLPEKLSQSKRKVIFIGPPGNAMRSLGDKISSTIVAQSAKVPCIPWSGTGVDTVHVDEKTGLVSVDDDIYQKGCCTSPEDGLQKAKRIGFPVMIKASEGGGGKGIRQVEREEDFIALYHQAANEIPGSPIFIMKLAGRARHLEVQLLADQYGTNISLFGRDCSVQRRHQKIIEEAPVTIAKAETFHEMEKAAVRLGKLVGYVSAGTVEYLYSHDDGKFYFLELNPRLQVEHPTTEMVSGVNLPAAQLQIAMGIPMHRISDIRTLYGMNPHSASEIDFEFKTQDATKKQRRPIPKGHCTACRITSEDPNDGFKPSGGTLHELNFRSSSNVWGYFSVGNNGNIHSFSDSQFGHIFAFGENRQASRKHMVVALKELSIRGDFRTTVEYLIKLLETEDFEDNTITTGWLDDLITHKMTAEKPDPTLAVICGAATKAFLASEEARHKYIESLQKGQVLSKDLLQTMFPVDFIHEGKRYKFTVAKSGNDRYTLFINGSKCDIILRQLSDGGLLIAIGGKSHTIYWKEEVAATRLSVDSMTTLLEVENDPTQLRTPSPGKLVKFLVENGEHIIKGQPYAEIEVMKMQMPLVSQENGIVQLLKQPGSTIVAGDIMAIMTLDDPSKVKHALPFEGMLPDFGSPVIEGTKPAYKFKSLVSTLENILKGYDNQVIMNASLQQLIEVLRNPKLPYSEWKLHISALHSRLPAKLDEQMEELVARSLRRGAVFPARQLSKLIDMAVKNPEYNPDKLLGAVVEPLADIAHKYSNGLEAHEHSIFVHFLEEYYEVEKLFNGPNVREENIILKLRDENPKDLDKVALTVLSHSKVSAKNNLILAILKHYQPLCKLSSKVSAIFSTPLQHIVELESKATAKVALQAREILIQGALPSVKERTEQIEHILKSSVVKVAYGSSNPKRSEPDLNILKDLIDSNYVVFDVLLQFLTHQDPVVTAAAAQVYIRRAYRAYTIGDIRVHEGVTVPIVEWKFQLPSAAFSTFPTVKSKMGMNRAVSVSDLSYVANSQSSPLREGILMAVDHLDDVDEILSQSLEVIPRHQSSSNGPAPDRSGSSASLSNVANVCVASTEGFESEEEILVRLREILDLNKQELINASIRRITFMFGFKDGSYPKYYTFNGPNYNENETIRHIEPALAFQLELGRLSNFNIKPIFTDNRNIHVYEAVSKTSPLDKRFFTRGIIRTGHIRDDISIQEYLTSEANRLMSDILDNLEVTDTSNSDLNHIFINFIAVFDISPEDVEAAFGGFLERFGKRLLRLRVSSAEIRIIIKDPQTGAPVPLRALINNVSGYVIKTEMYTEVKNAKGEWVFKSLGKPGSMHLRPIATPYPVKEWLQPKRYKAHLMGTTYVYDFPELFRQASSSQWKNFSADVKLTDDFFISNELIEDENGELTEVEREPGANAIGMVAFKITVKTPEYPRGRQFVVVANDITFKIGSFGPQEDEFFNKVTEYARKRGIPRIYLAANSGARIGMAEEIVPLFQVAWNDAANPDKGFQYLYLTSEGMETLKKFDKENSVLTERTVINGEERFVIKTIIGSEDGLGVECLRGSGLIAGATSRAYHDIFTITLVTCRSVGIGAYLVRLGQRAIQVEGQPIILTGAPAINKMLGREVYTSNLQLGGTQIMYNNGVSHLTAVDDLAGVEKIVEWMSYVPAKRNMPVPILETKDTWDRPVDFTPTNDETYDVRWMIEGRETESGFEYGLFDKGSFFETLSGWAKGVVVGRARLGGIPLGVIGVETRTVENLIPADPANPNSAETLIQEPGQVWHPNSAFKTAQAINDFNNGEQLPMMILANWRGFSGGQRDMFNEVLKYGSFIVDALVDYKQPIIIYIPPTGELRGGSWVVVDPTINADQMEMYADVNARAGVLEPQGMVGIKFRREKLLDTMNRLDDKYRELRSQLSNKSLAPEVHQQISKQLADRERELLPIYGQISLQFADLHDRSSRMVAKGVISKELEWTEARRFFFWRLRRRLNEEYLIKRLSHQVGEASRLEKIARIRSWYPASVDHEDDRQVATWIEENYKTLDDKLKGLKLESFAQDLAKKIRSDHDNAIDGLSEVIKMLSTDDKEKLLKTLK

Row | Structure (SMILES) | pIC50 [1] | pIC50 [2] | MIC [3] | MIC [4] | MIC [5] | pIC50 [6] | MIC [7] | MIC [8, 11] | MIC [8, 12] | MIC [9] | pIC50 [10]
1 | O=C(c1c2ccccc2cc2ccccc12)N1CCC(N2CCC[C@@H](C(=O)N3CCOCC3)C2)CC1 [CP-640186] | ~7.22 | ~7.22 | – | – | – | – | – | – | – | – | –
2 | COc1ccc(F)cc1[C@H](Cn1c(=O)n([C@@H]2CCNC2=O)c(=O)c2c(C)c(-n3nccn3)sc21)OC1CCOCC1 [Compound I-34, 1-((R)-2-(5-fluoro-2-methoxyphenyl)-2-((tetrahydro-2H-pyran-4-yl)oxy)ethyl)-5-methyl-3-((R)-2-oxopyrrolidin-3-yl)-6-(2H-1,2,3-triazol-2-yl)thieno[2,3-d]pyrimidine-2,4(1H,3H)-dione] | – | – | 0.25 to 1 µg/mL (≈ 0.428 to 1.71 µM) | 0.25 to 1 µg/mL (≈ 0.428 to 1.71 µM) | > 4.1 µg/mL | 8.00 to 8.70 | 0.25 to 1 µg/mL (≈ 0.428 to 1.71 µM) | 1.1 to 2 µg/mL (≈ 1.88 to 3.42 µM) | 1.1 to 2 µg/mL (≈ 1.88 to 3.42 µM) | 0.25 to 1 µg/mL (≈ 0.428 to 1.71 µM) | –
3 | COc1ccc(F)cc1[C@H](Cn1c(=O)n([C@@H]2CCN(C)C2=O)c(=O)c2c(C)c(-n3nccn3)sc21)OC1CCOCC1 [Compound I-36, 1-((R)-2-(5-fluoro-2-methoxyphenyl)-2-((tetrahydro-2H-pyran-4-yl)oxy)ethyl)-5-methyl-3-((R)-1-methyl-2-oxopyrrolidin-3-yl)-6-(2H-1,2,3-triazol-2-yl)thieno[2,3-d]pyrimidine-2,4(1H,3H)-dione] | – | – | 0.25 to 1 µg/mL (≈ 0.418 to 1.67 µM) | 0.25 to 1 µg/mL (≈ 0.418 to 1.67 µM) | > 4.1 µg/mL | 8.00 to 8.70 | 0.25 to 1 µg/mL (≈ 0.418 to 1.67 µM) | 0.25 to 1 µg/mL (≈ 0.418 to 1.67 µM) | 0.25 to 1 µg/mL (≈ 0.418 to 1.67 µM) | 0.25 to 1 µg/mL (≈ 0.418 to 1.67 µM) | 8.00 to 8.70
4 | COc1ccc(F)cc1[C@H](Cn1c(=O)n([C@H]2CCCNC2=O)c(=O)c2c(C)c(-n3nccn3)sc21)OC1CCOCC1 [Compound I-37, 1-((R)-2-(5-fluoro-2-methoxyphenyl)-2-((tetrahydro-2H-pyran-4-yl)oxy)ethyl)-5-methyl-3-((S)-2-oxopiperidin-3-yl)-6-(2H-1,2,3-triazol-2-yl)thieno[2,3-d]pyrimidine-2,4(1H,3H)-dione] | – | – | 0.25 to 1 µg/mL (≈ 0.418 to 1.67 µM) | 0.25 to 1 µg/mL (≈ 0.418 to 1.67 µM) | > 4.1 µg/mL | 8.00 to 8.70 | 0.25 to 1 µg/mL (≈ 0.418 to 1.67 µM) | 1.1 to 2 µg/mL (≈ 1.84 to 3.34 µM) | 1.1 to 2 µg/mL (≈ 1.84 to 3.34 µM) | 0.25 to 1 µg/mL (≈ 0.418 to 1.67 µM) | –
5 | COc1ccc(F)cc1[C@H](Cn1c(=O)n([C@H]2CCCN(C)C2=O)c(=O)c2c(C)c(-n3nccn3)sc21)OC1CCOCC1 [Compound I-39, 1-((R)-2-(5-fluoro-2-methoxyphenyl)-2-((tetrahydro-2H-pyran-4-yl)oxy)ethyl)-5-methyl-3-((S)-1-methyl-2-oxopiperidin-3-yl)-6-(2H-1,2,3-triazol-2-yl)thieno[2,3-d]pyrimidine-2,4(1H,3H)-dione] | – | – | 0.25 to 1 µg/mL (≈ 0.408 to 1.63 µM) | 0.25 to 1 µg/mL (≈ 0.408 to 1.63 µM) | > 4.1 µg/mL | 8.00 to 8.70 | 0.25 to 1 µg/mL (≈ 0.408 to 1.63 µM) | 1.1 to 2 µg/mL (≈ 1.8 to 3.26 µM) | 1.1 to 2 µg/mL (≈ 1.8 to 3.26 µM) | 0.25 to 1 µg/mL (≈ 0.408 to 1.63 µM) | 8.70 to 9.15
